# Legend:
# [1] = test system: HER5 cells (mouse fibroblast cells that overexpress human EGFR); assay: HER5 cell proliferation stimulation assay (WST-1); type: cell-based; conditions: serum-free, 48 hour proliferation period, FIG. 3
# Protocol: Hung (MD Anderson Cancer Center). Stock cultures of HER5 were propagated in D-MEM/F12 medium containing 10% fetal bovine serum, 100 units/ml of penicillin and 100 ug/ml of streptomycin in a water-jacketed incubator at 37° C. in a humidified 5% CO2 atmosphere. For HER5 proliferation assays, the cells were changed into DMEM/F12 without serum for 24 hours. Cells were then trypsinized and suspended at 1E5 cells/ml. […] Fifty microliters of cell suspension (5000 cells) were added to appropriate wells bringing the total volume to 100 ul at the desired concentrations. Plates were incubated for a 48 hour proliferation period. Cell proliferation was determined by addition of 10 ul/well of WST-1 Cell Proliferation Reagent (Roche Applied Sciences, Indianapolis, Ind.) for the last three hours of the proliferation period. WST-1 is a tetrazolium salt that is cleaved to formazan dye by mitochondrial dehydrogenases in viable cells. The amount of formazan was measured at 450 nm using a microplate reader (Dynex Technologies) with MRX Revelation software.
# [2] = test system: MCF-7 cells (human breast cancer cell line that express HER2 and HER3); assay: MCF-7 cell proliferation stimulation assay (WST-1); type: cell-based; conditions: serum-free, 72 hours, FIG. 4
# Protocol: MCF-7 cells were obtained from the American Type Culture Collection (ATCC). Stock cultures of MCF-7 were maintained in Eagle's MEM supplemented with 1% ITS-X (Invitrogen) and 10% fetal bovine serum. For proliferation assays, MCF-7 cells were transferred to serum-free medium (SFM) for 24 hours and then trypsinized and suspended at 1E5 cells/mL in SFM. Fifty microliters of cell suspension (5000 cells) were plated per well in 96 well microtiter plates. Serial dilutions of HER ligands or mutant proteins were prepared at twice the final concentration in SFM and 50 ul was added to wells, bringing the final volume to 100 ul at the desired final concentration. Plates were incubated for 72 hours at 37 C in a humidified 5% CO2 atmosphere. Cell proliferation was determined by addition of 10 ul/well of WST-1 Cell Proliferation Reagent (Roche Applied Sciences, Indianapolis, Ind.) for the last three hours of the proliferation period.
substance,measurement,setting,value
"Epidermal growth factor [EGF, agonistic ligand for EGFR]",stimulation of HER5 cells (proliferation),[1],can be stimulated
same,stimulation of MCF-7 cells (proliferation),[2],not
